Source: patent US9518055B2, “Imidazopyridyl compounds as aldosterone synthase inhibitors” (Merck Sharp & Dohme Corp., priority 2011, dated 2016)

Tests used:
[1] = biological target: human CYP11B1 (Homo sapiens (Human), UniProt P15538); assay: V79-Human-CYP11B1 cell assay; type: cell-based; details: for inhibition at 10 µM: starred values of the CYP11B1 column; for IC50: V79 cells stably expressing human CYP11B1, 250 nM 11-deoxycortisol substrate, cortisol measured by HTRF
Experimental: (§1) Methods for V79-Human-CYP11B2 and V79-Human-CYP11B1 Assays:
(§2) V79 cell lines stably expressing the either the human CYP11B2 or the human CYP11B1 enzyme were generated using a standard transfection protocol. V79 cells were transfected with plasmids pTriEx3-Hygro-hCyp11B2 or pTriEx3-Hygro-hCyp11B1 using Lipofectamine2000 reagent. V79 cells that stably express the human CYP11B2 or human CYP11B1 enzyme were selected for and maintained in DMEM supplemented with 10% FBS and 400 μg/mL hygromycin for ˜2 weeks. Single cell clones were generated by […] in DMEM supplemented with 10% FBS and 400 μg/mL hygromycin until single colonies were obtained. […] For testing of inhibitors, cells were harvested at 80% confluency with 0.5% Trypsan-EDTA, washed once in PBS, and reconstituted in DMEM+0.1% BSA media at a cell concentration of 600,000 cells/mL for the CYP11B2 assay and 280,000 cells/mL for the CYP11B1 assay. 25 μL of cells were added to a 384 well tissue culture treated plate and mixed with 0.3 μL of inhibitor or DMSO (1% final DMSO concentration) for 1 hour at 37° C., 5% CO2. […] The reaction was carried out for 3 hours at 37° C., 5% CO2 and was stopped by harvesting the supernatants. The amount of product in the supernatant (aldosterone for CYP11B2 assay and cortisol for the CYP11B1 assay) was measured using HTRF-based assay kit (Aldosterone HTRF-CisBio#64ALDPEB, Cortisol HTRF-CisBio #63IDC002-CORT). IC50s for the inhibitor were determined by plotting the amount of product formed against the concentration of inhibitor using sigmoidal dose-response curve (variable slope) fit in GraphPad.

[2] = biological target: human CYP11B2 (Homo sapiens (Human), UniProt P19099); assay: V79-Human-CYP11B2 cell assay; type: cell-based; details: V79 cells stably expressing human CYP11B2; 125 nM 11-deoxycorticosterone substrate; aldosterone measured by HTRF
Experimental: as §1, §2

human CYP11B1, sequence (P15538 25-503): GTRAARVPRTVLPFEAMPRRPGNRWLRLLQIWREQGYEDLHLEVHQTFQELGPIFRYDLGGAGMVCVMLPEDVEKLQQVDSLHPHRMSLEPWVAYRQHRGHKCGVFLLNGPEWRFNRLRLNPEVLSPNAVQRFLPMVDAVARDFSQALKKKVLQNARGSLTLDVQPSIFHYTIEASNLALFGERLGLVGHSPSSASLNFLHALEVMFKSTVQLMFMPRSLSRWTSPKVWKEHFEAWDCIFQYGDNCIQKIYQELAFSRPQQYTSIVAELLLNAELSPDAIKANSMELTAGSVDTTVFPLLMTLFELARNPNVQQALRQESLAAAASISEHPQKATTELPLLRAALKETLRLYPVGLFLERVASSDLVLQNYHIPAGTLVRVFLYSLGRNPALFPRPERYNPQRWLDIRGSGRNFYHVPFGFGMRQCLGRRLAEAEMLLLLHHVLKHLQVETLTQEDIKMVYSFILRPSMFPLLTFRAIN
human CYP11B2, sequence (P19099 25-503): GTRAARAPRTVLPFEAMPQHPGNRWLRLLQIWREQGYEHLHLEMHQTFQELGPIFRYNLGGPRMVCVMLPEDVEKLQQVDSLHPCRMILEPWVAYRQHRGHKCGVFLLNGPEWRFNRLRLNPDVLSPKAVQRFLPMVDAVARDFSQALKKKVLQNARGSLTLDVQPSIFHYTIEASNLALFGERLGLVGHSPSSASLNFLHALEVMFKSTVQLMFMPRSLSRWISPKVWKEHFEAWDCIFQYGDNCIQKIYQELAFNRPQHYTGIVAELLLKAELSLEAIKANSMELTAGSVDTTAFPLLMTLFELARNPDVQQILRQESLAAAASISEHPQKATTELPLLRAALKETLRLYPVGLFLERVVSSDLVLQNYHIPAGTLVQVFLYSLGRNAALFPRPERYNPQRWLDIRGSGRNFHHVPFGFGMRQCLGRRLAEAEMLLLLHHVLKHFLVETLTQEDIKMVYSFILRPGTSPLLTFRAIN

Cc1ccncc1-c1cn2cc(F)ccc2n1 [Example 6, 6-fluoro-2-(4-methylpyridin-3-yl)imidazo[1,2-a]pyridine]
inhibition at 10 µM [1]: 63% | IC50 [2]: 22.4 nM

Cc1cncc(-c2cn3cc(F)ccc3n2)c1 [Example 7, 6-fluoro-2-(5-methylpyridin-3-yl)imidazo[1,2-a]pyridine]
inhibition at 10 µM [1]: 60% | IC50 [2]: 56.2 nM

COc1cncc(-c2nc3ccc(F)cn3c2C)c1 [Example 18, 6-fluoro-3-methyl-2-(5-methoxypyridin-3-yl)imidazo[1,2-a]pyridine]
IC50 [1]: 32.4 nM | IC50 [2]: 0.3 nM

Cc1cncc(-c2nc3ccc(F)cn3c2C)c1 [Example 19, 6-fluoro-3-methyl-2-(5-methylpyridin-3-yl)imidazo[1,2-a]pyridine]
IC50 [1]: 40.7 nM | IC50 [2]: 0.45 nM

Cc1ccncc1-c1nc2ccc(F)cn2c1C [Example 20, 6-fluoro-3-methyl-2-(4-methylpyridin-3-yl)imidazo[1,2-a]pyridine]
IC50 [1]: 135 nM | IC50 [2]: 2.2 nM

Cc1c(-c2cncc3ccccc23)nc2ccc(F)cn12 [Example 25]
IC50 [1]: 14.8 nM | IC50 [2]: 0.1 nM

Cc1c(-c2cncc(F)c2)nc2cc(F)ccn12 [Example 26, 7-fluoro-2-(5-fluoropyridin-3-yl)-3-methylimidazo[1,2-a]pyridine]
IC50 [1]: 912 nM | IC50 [2]: 4.7 nM
